Results taken from article PMC2746281 (PLoS ONE, 2009).

Tests used:
Akt1 = biological target: T1, Akt1 (Homo sapiens, UniProt P31749); assay: Recombinant kinase screen (Proqinase), Akt1; type: biochemical; conditions: recombinant human enzyme; single experiment, kinase screen by Proqinase
T1 construct: purchased Proqinase (Germany)
Procedure: (§1) Full details for the generation of recombinant human KIT intracellular domain and other protein kinases (including Lyn, platelet derived growth factor receptor β, epidermal growth factor receptor, fibroblast growth factor receptor 1, Src, HCK, PYK, FES, Btk, Bmx, c-Ret, c-Fms, Syk, and c-Met) are provided in the Supplemental Methods (see Supporting Information; Methods S1). Experiments on ABL1, Akt1, protein kinase C-α, insulin-like growth factor receptor 1, and Pim1 were carried out by Proqinase (Germany). All other recombinant protein kinases were performed in-house using an enzyme-linked immunoassay; experimental details are provided in the Supplemental Methods (see Supporting Information; Methods S1).

[1] = system: Salmonella typhimurium and Escherichia coli; assay: Bacterial reverse mutation test; conditions: our unpublished results
HMC-1α155 cells = assay: Mastocytoma cell line proliferation (WST-1), HMC-1α155; type: cell-based; conditions: Homo sapiens, 48 h; 2 days; KIT juxtamembrane mutation
Procedure: (B) western blotting analysis of HMC-1α155 tyrosine phosphorylation. […] (D) Western blotting analysis of BMMC tyrosine phosphorylation. Cell proliferation was assessed by WST-1 colorimetric assay. […] MW = molecular weight.

Lyn B = biological target: T2, Lyn B (Homo sapiens, UniProt P07948); assay: Recombinant kinase ELISA assay, Lyn B; type: biochemical; conditions: recombinant human enzyme; ELISA-based assay, poly(Glu,Tyr 4:1) substrate
T2 construct: Lyn B (2–583; BC059394); 6xHN (N); made in house; host or cells: baculovirus, Sf9 insect cells
T2 sequence (P07948 2-491 isoform P07948-2 limits assumed): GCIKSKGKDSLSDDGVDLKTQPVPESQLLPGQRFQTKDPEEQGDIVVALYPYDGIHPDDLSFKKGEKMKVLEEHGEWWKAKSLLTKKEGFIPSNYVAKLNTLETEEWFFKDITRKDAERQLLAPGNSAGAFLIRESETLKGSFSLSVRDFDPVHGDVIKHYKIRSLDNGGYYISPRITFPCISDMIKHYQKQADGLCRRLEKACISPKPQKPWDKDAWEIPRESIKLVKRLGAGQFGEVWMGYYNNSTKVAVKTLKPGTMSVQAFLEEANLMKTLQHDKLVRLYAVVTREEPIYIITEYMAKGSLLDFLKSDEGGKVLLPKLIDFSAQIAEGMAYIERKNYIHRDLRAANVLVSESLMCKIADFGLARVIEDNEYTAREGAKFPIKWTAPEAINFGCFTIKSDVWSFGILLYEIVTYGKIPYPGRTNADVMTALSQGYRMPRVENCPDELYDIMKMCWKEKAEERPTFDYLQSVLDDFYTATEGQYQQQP
Procedure: as §1

mouse bone marrow cells = assay: Chromosome / mitotic apparatus damage in mouse bone marrow cells; type: in vivo; conditions: two daily administrations at 437.5, 875, or 1750 mg/kg/day, our unpublished results
[2] = biological target: Insulin-like growth factor-I receptor (Homo sapiens, UniProt P08069); assay: Recombinant kinase screen (Proqinase), IGF-I receptor; type: biochemical; conditions: recombinant human enzyme; single experiment, kinase screen by Proqinase
Chain of Insulin-like growth factor-I receptor (P08069 31-1367): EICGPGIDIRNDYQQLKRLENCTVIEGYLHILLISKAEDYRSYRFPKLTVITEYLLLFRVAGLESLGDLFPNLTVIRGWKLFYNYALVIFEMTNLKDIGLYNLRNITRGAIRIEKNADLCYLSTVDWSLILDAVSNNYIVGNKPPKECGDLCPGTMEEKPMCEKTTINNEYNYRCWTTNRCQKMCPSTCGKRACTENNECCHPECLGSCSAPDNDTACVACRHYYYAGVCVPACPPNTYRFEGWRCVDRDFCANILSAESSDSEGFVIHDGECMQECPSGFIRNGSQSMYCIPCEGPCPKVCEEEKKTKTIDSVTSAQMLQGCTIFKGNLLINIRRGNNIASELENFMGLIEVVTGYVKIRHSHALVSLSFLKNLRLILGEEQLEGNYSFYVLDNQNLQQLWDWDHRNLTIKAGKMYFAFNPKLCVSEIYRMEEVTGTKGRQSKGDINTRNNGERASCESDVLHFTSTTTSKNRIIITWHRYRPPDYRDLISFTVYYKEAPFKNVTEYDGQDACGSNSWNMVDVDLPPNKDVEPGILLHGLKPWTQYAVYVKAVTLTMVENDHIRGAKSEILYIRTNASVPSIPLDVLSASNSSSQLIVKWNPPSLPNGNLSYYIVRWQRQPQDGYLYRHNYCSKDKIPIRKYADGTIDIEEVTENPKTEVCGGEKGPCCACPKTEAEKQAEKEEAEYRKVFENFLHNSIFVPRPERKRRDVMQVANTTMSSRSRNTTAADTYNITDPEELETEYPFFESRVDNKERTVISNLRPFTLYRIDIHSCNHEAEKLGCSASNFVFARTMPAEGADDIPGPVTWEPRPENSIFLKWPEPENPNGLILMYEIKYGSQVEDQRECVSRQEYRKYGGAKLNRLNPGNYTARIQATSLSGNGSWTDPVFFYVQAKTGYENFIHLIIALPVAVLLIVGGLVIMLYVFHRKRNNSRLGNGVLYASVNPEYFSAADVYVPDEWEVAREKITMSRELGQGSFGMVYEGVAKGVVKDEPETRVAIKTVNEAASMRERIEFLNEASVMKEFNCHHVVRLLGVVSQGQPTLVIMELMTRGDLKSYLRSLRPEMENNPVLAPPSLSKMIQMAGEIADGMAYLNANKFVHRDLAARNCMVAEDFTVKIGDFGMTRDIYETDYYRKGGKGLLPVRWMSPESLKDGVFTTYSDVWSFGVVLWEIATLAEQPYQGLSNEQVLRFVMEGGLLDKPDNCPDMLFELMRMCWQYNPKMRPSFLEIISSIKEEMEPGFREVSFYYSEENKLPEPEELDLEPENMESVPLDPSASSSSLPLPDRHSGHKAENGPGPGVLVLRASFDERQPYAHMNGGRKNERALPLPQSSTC
Procedure: as §1

Alk = biological target: T3, Alk (Homo sapiens, UniProt Q9UM73); assay: Ba/F3 cell proliferation (WST-1), Alk; conditions: Ba/F3 cells expressing the enzyme, read-out: Cell-based assay IC50, Alk
T3 construct: expressed in transfected cells; host or cells: Ba/F3
T3 sequence (Q9UM73 19-1620, species assumed): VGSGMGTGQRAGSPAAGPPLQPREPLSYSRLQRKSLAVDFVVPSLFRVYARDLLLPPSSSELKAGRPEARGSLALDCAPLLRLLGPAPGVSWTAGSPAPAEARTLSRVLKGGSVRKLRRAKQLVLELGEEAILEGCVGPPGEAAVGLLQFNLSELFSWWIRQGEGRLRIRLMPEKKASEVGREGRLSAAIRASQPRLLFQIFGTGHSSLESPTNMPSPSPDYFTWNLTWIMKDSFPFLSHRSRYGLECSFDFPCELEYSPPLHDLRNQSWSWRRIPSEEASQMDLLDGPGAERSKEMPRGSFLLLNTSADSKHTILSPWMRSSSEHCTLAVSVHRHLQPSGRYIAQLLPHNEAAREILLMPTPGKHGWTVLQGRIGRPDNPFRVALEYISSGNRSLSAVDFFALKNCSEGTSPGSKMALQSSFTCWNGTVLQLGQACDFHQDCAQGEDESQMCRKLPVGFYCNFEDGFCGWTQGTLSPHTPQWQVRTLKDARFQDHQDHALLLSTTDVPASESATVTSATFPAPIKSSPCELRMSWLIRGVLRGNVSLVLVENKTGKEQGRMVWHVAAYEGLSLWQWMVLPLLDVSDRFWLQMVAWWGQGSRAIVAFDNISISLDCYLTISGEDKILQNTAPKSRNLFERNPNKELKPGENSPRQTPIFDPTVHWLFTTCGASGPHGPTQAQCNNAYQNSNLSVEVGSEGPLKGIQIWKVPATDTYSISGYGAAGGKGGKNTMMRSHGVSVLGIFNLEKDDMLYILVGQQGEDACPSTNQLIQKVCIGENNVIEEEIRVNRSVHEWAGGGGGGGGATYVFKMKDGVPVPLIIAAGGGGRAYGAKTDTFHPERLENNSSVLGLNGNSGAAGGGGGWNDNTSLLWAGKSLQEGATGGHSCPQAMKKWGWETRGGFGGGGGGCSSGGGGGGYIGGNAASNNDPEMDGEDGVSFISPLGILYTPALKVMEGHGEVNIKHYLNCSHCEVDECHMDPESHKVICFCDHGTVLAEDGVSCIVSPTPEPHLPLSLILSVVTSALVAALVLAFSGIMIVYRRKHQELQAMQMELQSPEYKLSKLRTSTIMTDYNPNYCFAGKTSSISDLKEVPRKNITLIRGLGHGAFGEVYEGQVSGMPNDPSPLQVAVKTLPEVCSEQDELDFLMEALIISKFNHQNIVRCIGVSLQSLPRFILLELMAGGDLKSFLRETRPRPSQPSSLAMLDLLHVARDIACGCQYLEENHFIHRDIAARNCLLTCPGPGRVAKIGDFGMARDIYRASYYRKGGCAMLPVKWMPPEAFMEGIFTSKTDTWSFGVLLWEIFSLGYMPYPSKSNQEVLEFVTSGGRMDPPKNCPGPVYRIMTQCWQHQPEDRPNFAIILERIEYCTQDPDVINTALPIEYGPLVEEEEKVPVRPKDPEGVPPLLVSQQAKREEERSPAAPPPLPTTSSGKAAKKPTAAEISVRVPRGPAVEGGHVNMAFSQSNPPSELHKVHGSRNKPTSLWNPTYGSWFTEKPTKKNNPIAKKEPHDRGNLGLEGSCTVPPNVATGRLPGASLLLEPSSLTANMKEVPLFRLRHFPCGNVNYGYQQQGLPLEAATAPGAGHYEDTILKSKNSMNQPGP

[3] = system: Δ27-expressing Ba/F3 cells; assay: Ba/F3 Δ27 tumour model in nude mice; type: in vivo; conditions: for average tumour volume increase: days 14 to 25, tumours 40 mm^3, vehicle 1200%; for animals with no detectable tumours at day 25: n = 8 per group
Procedure: Nude mice were gamma-irradiated and implanted after 24 hours with Δ27-expressing Ba/F3 cells by subcutaneous injection.
placebo (vehicle control); or untreated (n = 8 per group). […]
Female MBRI Nu/Nu mice (7 weeks old) (Janvier, France) were housed under specific pathogen-free conditions at 20±1°C with a 12 hours light/12 hours dark cycle and ad libitum access to food and filtered water. The mice were allowed to acclimatise to the study conditions for 10 to 20 days prior to experiments. All animal experiments were performed according to Centre national de la recherche scientifique (CNRS) ethical guidelines of animal experimentation. […] The cells were centrifuged and resuspended at 5×10^6 or 7.5×10^6 cells/ml in phosphate-buffered saline. Mice were treated with 5 Gy of gamma radiation and after 24 hours they were injected in the right flank with 1.5×10^6 Δ27 Ba/F3 cells. […] For all animals, body weight was measured on the day of injection and every 5 days thereafter, with the tumour's size measured via callipers every 5 days during the treatment period for estimation of tumour volume. During the predose period and for 2 weeks post-treatment, the animals were checked for mortality or signs of morbidity once a day, increasing to twice a day checks during the treatment period.
Survival in the in vivo mouse studies was assessed by Kaplan-Meier analysis using GraphPad Prism (GraphPad Software, Inc. USA) with comparison of survival curves performed by the logrank Mantel-Cox test. The appropriate Wilcoxon or Kruskall-Wallis tests were used for group comparison of tumour volumes and BMMC migration.

PDGFRβ = PDGFRβ (Homo sapiens, UniProt P09619); assay: Ba/F3 cell proliferation (WST-1), PDGFRβ; parameters: expressed in transfected cells; host or cells: Ba/F3 (general description of the cell system; not repeated for this kinase); conditions: Ba/F3 cells expressing the enzyme, read-out: Cell-based assay IC50, PDGFRβ
Chain of PDGFRβ (P09619 33-1106): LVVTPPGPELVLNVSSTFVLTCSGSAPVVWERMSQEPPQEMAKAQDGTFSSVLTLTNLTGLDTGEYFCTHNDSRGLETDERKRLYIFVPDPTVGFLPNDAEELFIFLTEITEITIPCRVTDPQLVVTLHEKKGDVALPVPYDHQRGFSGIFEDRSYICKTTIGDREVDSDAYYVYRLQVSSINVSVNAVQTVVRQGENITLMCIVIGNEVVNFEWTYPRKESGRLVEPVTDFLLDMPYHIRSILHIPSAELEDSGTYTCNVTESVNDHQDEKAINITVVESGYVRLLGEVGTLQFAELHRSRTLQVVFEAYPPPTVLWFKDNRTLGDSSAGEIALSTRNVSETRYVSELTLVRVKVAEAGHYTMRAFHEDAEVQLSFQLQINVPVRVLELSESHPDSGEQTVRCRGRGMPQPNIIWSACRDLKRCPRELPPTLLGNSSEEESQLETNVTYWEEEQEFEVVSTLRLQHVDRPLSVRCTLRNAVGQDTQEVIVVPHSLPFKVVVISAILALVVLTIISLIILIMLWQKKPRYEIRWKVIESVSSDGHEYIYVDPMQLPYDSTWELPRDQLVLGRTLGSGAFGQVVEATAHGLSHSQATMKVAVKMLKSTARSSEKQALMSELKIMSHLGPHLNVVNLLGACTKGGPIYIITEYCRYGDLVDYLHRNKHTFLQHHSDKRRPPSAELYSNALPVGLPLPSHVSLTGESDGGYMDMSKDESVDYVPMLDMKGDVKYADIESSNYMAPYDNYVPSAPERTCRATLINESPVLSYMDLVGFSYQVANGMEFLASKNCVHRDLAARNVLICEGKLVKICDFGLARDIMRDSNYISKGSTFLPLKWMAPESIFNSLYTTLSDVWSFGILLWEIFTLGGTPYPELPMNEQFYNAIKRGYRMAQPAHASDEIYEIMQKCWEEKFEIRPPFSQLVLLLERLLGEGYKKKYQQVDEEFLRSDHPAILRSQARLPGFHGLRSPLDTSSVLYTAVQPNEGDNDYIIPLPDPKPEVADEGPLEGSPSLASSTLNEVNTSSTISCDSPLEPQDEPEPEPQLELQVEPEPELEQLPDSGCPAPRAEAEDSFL

VEGFR2 = VEGFR2 (Homo sapiens, UniProt P35968); assay: Recombinant kinase ELISA assay, VEGFR2; type: biochemical; conditions: recombinant human enzyme; ELISA-based assay, poly(Glu,Tyr 4:1) substrate
Procedure: as §1

Flt3 = Flt3 (Homo sapiens, UniProt P36888); assay: Ba/F3 cell proliferation (WST-1), Flt3; conditions: Ba/F3 cells expressing the enzyme, read-out: Cell-based assay IC50, Flt3
Jak3 = biological target: T4, Jak3 (Homo sapiens, UniProt P52333); assay: Ba/F3 cell proliferation (WST-1), Jak3; conditions: Ba/F3 cells expressing the enzyme, read-out: Cell-based assay IC50, Jak3
T4 construct: expressed in transfected cells; host or cells: Ba/F3

T1 sequence (P31749 whole entry): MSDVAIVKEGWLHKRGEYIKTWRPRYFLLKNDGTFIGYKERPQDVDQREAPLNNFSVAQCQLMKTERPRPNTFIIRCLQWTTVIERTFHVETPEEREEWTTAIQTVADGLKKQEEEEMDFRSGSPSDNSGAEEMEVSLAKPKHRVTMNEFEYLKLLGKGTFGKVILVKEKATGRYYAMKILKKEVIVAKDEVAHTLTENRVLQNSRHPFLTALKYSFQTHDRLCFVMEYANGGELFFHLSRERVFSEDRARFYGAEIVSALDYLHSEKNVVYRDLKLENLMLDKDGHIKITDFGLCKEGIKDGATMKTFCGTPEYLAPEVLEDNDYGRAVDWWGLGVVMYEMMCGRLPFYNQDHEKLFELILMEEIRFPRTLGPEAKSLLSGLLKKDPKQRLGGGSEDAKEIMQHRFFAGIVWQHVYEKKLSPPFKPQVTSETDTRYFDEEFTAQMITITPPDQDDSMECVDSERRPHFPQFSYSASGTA

CS(=O)(=O)O.CS(=O)(=O)O.Cc1ccc(NC(=O)c2ccc(CN3CCN(C)CC3)cc2)cc1Nc1nc(-c2cccnc2)cs1 [masitinib, 4-(4-methylpiperazin-1-ylmethyl)-N-[4-methyl-3-(4-pyridin-3ylthiazol-2-ylamino)phenyl]benzamide-mesylate methane sulfonic acid salt]
IC50 (Akt1): > 10 µM | mutagenicity in bacterial reverse mutation tests [1]: not mutagenic | IC50 (HMC-1α155 cells): ~0.01 µM | IC50 (Lyn B): 0.51 ± 0.13 µM | damage to chromosomes or the mitotic apparatus (mouse bone marrow cells): does not cause damage to chromosomes or the mitotic apparatus | IC50 [2]: > 10 µM | IC50 (Alk): 9 ± 0.18 µM | effect on total body weight ([3]; 30 mg/kg intraperitoneal twice daily for 25 days): did not affect the total body weight | tumour growth ([3]; 30 mg/kg intraperitoneal twice daily for 25 days, tumours 400 mm^3): Tumour growth stabilised | median survival time ([3]; 30 mg/kg intraperitoneal twice daily for 25 days, tumours 400 mm^3, control 30.5 days): 42 days | average tumour volume, placebo group compared to masitinib treated group ([3]; 30 mg/kg intraperitoneal twice daily, after 10 days of treatment (day 29)): ~4 fold | average tumour volume increase ([3]; 30 mg/kg oral twice daily): 355% | animals with no detectable tumours at day 25 ([3]; 30 mg/kg oral twice daily): one | average tumour volume increase ([3]; 45 mg/kg oral twice daily): 154% | animals with no detectable tumours at day 25 ([3]; 45 mg/kg oral twice daily): two | tumour growth ([3]; 100 mg/kg oral twice daily, 5 days, tumours 500 mm^3 (data not shown)): tumour growth was blocked | effect on body weight gain ([3]; 10, 30, or 45 mg/kg oral twice daily): did not affect body weight gain | IC50 (PDGFRβ): 0.05 ± 0.02 µM | IC50 (VEGFR2): > 10 µM | IC50 (Flt3): 5 ± 2 µM | IC50 (Jak3): 10 ± 0.5 µM
